Reference: patent US11873319B2, “Cyclic di-nucleotide induction of type I interferon” (The Regents of the University of California, priority 2013, dated 2024)

How the values were obtained:
hSTING = hSTING (Homo sapiens, UniProt Q86WV6); settings: Conlon et al.; cited from earlier work
[1] = human clinical trials; cited from earlier work
variant STING alleles = experiment: UV crosslinking binding assay of variant STING alleles to 32P-c-di-GMP; parameters: species or system mouse and human; settings: lysates of transfected 293T cells, FIG. 3B
Description: FIG. 1, panels A-F show the variable responsiveness of human STING variants to cyclic-di-nucleotides maps to arginine 232. (Panel A) THP-1 cells were transduced with vectors encoding an shRNA targeting STING or a control shRNA. Cells were then stimulated with cyclic-di-GMP (cdG), dsDNA, cyclic-di-AMP (cdA), poly-inosine:cytosine (pI:C), or Sendai Virus, and induction of human interferon-β mRNA was assessed by quantitative reverse transcriptase PCR. (Panel B) Western blotting confirmed that knockdown of STING was effective. (Panel C) HEK293T cells were transfected with the indicated amounts of various mouse (m) or human (h) STING expression plasmid and then stimulated 6 h later by transfection with synthetic cdG (5 μM). […] STING activation was assessed by use of a co-transfected IFN-luciferase reporter construct. […] IFN induction was measured by qRT-PCR. ND, not detected. […] Binding was quantified by autoradiography. […]
(Panel A) 293T cells were transfected with the indicated alleles of mouse (m)STING or human (h)STING and were then stimulated with c-di-GMP (cdG). STING activity was detected by the induction of a co-transfected IFN-luciferase reporter construct and expressed as fold-induction over luciferase activity of unstimulated cells. (Panel B) Lysates of transfected 293T cells were UV crosslinked in the presence of α32P-c-di-GMP, resolved by SDS-PAGE, and then analyzed by autoradiography. […]

Sequence of hSTING (Q86WV6 whole entry): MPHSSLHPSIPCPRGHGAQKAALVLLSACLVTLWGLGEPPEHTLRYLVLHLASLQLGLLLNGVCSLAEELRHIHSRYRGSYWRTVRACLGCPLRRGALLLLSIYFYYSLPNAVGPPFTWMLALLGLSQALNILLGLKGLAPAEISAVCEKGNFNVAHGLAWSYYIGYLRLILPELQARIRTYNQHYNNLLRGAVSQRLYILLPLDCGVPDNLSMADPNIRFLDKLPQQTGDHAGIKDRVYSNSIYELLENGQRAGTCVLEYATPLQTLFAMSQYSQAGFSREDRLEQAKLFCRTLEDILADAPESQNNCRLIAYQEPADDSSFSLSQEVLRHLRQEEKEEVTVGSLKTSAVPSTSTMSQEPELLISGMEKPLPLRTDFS

Row | SMILES | stimulation of hSTING (hSTING) | efficacy in humans [1] | binding to variant STING alleles (variant STING alleles)
1 | Cc1ccc2c(=O)c3cccc(CC(=O)O)c3oc2c1C [DMXAA] | unable to stimulate | not found to be efficacious | –
2 | Nc1nc2c(ncn2[C@@H]2O[C@@H]3COP(=O)(O)O[C@H]4[C@@H](O)[C@H](n5cnc6c(=O)[nH]c(N)nc65)O[C@@H]4COP(=O)(O)O[C@H]3[C@H]2O)c(=O)[nH]1 [cyclic-di-GMP] | – | – | bound
